Laboratory results: US20260183297A1, “SELECTION OF PATIENTS FOR THE TREATMENT OF FADS1-MEDIATED DISEASES OR DISORDERS USING FADS-1 INHIBITORS” (AMGEN INC., priority 2022, published 2026)
Marks after values point to notes of the source that are not given here.

Assay: Fatty acid concentration and composition of plasma lipid subfractions (GC) of Compound A-treated DIO mice
Format: in vivo, mouse
Conditions: DIO mouse plasma, 30 mg/kg, GC
Description: FIG. 16(b) provides fatty acid composition of total plasma and each of the 4 plasma lipid subfractions of vehicle treated (WT) and 30 mg/kg Compound A-treated WT DIO mice (WT+A). (a-b) n=3 samples per group (each sample pooled from 2 mice). (a) Data are shown as minimum to maximum. t-test *P<0.05, **P<0.01, ***P<0.001.

[1] = Phospholipids, mean % composition
[2] = Total lipids, mean % composition
[3] = Triglycerides, mean % composition

COc1ccn2c(=O)c(-c3cnn(CC(F)(F)C(F)(F)F)c3)c(C(F)(F)F)nc2c1 [Compound A, 8-methoxy-3-(1-(2,2,3,3,3-pentafluoropropyl)-1H-pyrazol-4-yl)-2-(trifluoromethyl)-4H-pyrido[1,2-a]pyrimidin-4-one]
C16:1n7t composition, Phospholipids [1]: 0.05%
C18:0 composition, Phospholipids [1]: 14.4*** %
C18:1n9 composition, Phospholipids [1]: 12.3** %
C18:1t composition, Phospholipids [1]: 0.18%
C18:2n6 composition, Phospholipids [1]: 19.0%
C18:2n6t composition, Phospholipids [1]: 0.22** %
C18:3n3 composition, Phospholipids [1]: 0.05%
C18:3n6 composition, Phospholipids [1]: 0.2* %
C20:0 composition, Phospholipids [1]: 0.07* %
C20:1n9 composition, Phospholipids [1]: 0.28%
C20:2n6 composition, Phospholipids [1]: 0.43* %
C20:3n6 composition, Phospholipids [1]: 18.2*** %
C20:4n6 composition, Phospholipids [1]: 1.49*** %
C20:5n3 composition, Phospholipids [1]: 0.06* %
C22:0 composition, Phospholipids [1]: 0.08%
C22:4n6 composition, Phospholipids [1]: 0.10*** %
C22:5n3 composition, Phospholipids [1]: 0.61%
C22:5n6 composition, Phospholipids [1]: 0.09** %
C22:6n3 composition, Phospholipids [1]: 3.33*** %
C24:0 composition, Phospholipids [1]: 0.04%
C24:1n9 composition, Phospholipids [1]: 0.16%
C14:0 concentration, Total (Total lipids, mean): 7.7 µg/mL
C16:0 concentration, Total (Total lipids, mean): 635 µg/mL
C16:1n7 concentration, Total (Total lipids, mean): 41.4 µg/mL
C18:0 concentration, Total (Total lipids, mean): 285** μg mL^−1
C18:1n9 concentration, Total (Total lipids, mean): 478 µg/mL
C18:1t concentration, Total (Total lipids, mean): 3.6 µg/mL
C18:2n6 concentration, Total (Total lipids, mean): 870 µg/mL
C18:2n6t concentration, Total (Total lipids, mean): 6.0 µg/mL
C18:3n3 concentration, Total (Total lipids, mean): 5.9** μg mL^−1
C18:3n6 concentration, Total (Total lipids, mean): 23.3** μg mL^−1
C20:0 concentration, Total (Total lipids, mean): 2.3** μg mL^−1
C20:1n9 concentration, Total (Total lipids, mean): 8.4 µg/mL
C20:3n6 concentration, Total (Total lipids, mean): 465*** μg mL^−1
C20:4n6 concentration, Total (Total lipids, mean): 92.3** μg mL^−1
C20:5n3 concentration, Total (Total lipids, mean): 2.7** μg mL^−1
C22:0 concentration, Total (Total lipids, mean): 3.3** μg mL^−1
C22:4n6 concentration, Total (Total lipids, mean): 2.1*** μg mL^−1
C22:5n3 concentration, Total (Total lipids, mean): 2.8*** μg mL^−1
C22:5n6 concentration, Total (Total lipids, mean): 2.4*** μg mL^−1
C22:6n3 concentration, Total (Total lipids, mean): 98.5** μg mL^−1
C24:1n9 concentration, Total (Total lipids, mean): 6.9 µg/mL
Total fatty acids concentration, Total (Total lipids, mean): 3058* μg mL^−1
C14:0 composition, Total [2]: 0.25%
C16:0 composition, Total [2]: 20.8%
C16:1n7 composition, Total [2]: 1.35%
C16:1n7t composition, Total [2]: 0.1%
C18:0 composition, Total [2]: 9.3%
C18:1n9 composition, Total [2]: 15.7%
C18:1t composition, Total [2]: 0.12%
C18:2n6 composition, Total [2]: 28.5%
C18:2n6t composition, Total [2]: 0.2%
C18:3n3 composition, Total [2]: 0.19%
C18:3n6 composition, Total [2]: 0.76%
C20:0 composition, Total [2]: 0.08%
C20:1n9 composition, Total [2]: 0.27%
C20:2n6 composition, Total [2]: 0.32%
C20:3n6 composition, Total [2]: 15.2%
C20:4n6 composition, Total [2]: 3.01%
C20:5n3 composition, Total [2]: 0.09*** %
C22:0 composition, Total [2]: 0.11%
C22:4n6 composition, Total [2]: 0.07*** %
C22:5n3 composition, Total [2]: 0.09*** %
C22:5n6 composition, Total [2]: 0.08*** %
C22:6n3 composition, Total [2]: 3.22%
C24:0 composition, Total [2]: 0.06%
C24:1n9 composition, Total [2]: 0.23** %
C14:0 concentration, Triglycerides (Triglycerides, mean): 26.7 µg/mL
C16:0 concentration, Triglycerides (Triglycerides, mean): 135 µg/mL
C16:1n7 concentration, Triglycerides (Triglycerides, mean): 6.2 µg/mL
C16:1n7t concentration, Triglycerides (Triglycerides, mean): 0.7 µg/mL
C18:0 concentration, Triglycerides (Triglycerides, mean): 80.4 µg/mL
C18:1n9 concentration, Triglycerides (Triglycerides, mean): 161* μg mL^−1
C18:1t concentration, Triglycerides (Triglycerides, mean): 6.1 µg/mL
C18:2n6 concentration, Triglycerides (Triglycerides, mean): 42.6** μg mL^−1
C18:2n6t concentration, Triglycerides (Triglycerides, mean): 9.0 µg/mL
C18:3n3 concentration, Triglycerides (Triglycerides, mean): 1.8 µg/mL
C18:3n6 concentration, Triglycerides (Triglycerides, mean): 0.7 µg/mL
C20:0 concentration, Triglycerides (Triglycerides, mean): 1.6 µg/mL
C20:1n9 concentration, Triglycerides (Triglycerides, mean): 5.6* μg mL^−1
C20:2n6 concentration, Triglycerides (Triglycerides, mean): 1.7 µg/mL
C20:3n6 concentration, Triglycerides (Triglycerides, mean): 8.3 µg/mL
C20:4n6 concentration, Triglycerides (Triglycerides, mean): 2.5*** μg mL^−1
C20:5n3 concentration, Triglycerides (Triglycerides, mean): 3.7** μg mL^−1
C22:0 concentration, Triglycerides (Triglycerides, mean): 3.5 µg/mL
C22:4n6 concentration, Triglycerides (Triglycerides, mean): 2.5* μg mL^−1
C22:5n3 concentration, Triglycerides (Triglycerides, mean): 49.9* μg mL^−1
C22:5n6 concentration, Triglycerides (Triglycerides, mean): 2.5 µg/mL
C22:6n3 concentration, Triglycerides (Triglycerides, mean): 0.6** μg mL^−1
C24:0 concentration, Triglycerides (Triglycerides, mean): 1.2 µg/mL
C24:1n9 concentration, Triglycerides (Triglycerides, mean): 2.3 µg/mL
Total fatty acids concentration, Triglycerides (Triglycerides, mean): 556* μg mL^−1
C14:0 composition, Triglycerides [3]: 4.77* %
C16:0 composition, Triglycerides [3]: 24.2%
C16:1n7 composition, Triglycerides [3]: 1.10%
C16:1n7t composition, Triglycerides [3]: 0.12%
C18:0 composition, Triglycerides [3]: 14.5%
C18:1n9 composition, Triglycerides [3]: 29.0%
C18:1t composition, Triglycerides [3]: 1.09%
C18:2n6 composition, Triglycerides [3]: 7.68** %
C18:2n6t composition, Triglycerides [3]: 1.64* %
C18:3n3 composition, Triglycerides [3]: 0.33%
C18:3n6 composition, Triglycerides [3]: 0.13%
C20:0 composition, Triglycerides [3]: 0.28%
C20:1n9 composition, Triglycerides [3]: 1.01%
C20:2n6 composition, Triglycerides [3]: 0.31%
C20:3n6 composition, Triglycerides [3]: 1.5%
C20:4n6 composition, Triglycerides [3]: 0.46*** %
C20:5n3 composition, Triglycerides [3]: 0.67%
C22:0 composition, Triglycerides [3]: 0.63%
C22:4n6 composition, Triglycerides [3]: 0.45%
C22:5n3 composition, Triglycerides [3]: 8.98*** %
C22:5n6 composition, Triglycerides [3]: 0.45* %
C22:6n3 composition, Triglycerides [3]: 0.12*** %
C24:0 composition, Triglycerides [3]: 0.23%
C24:1n9 composition, Triglycerides [3]: 0.41%
EPA/AA, Cholesterol ester (Table 5.5) (ratio, Cholesterol ester): 0.039*
EPA/AA, Cholesterol ester (Table 5.6) (ratio, Cholesterol ester): 0.039*
EPA/AA, Free fatty acids (Table 5.5) (ratio, Free fatty acids): 2.94*
EPA/AA, Free fatty acids (Table 5.6) (ratio, Free fatty acids): 2.94*
EPA/AA, Phospholipids (Table 5.5) (ratio, Phospholipids): 0.038*
EPA/AA, Phospholipids (Table 5.6) (ratio, Phospholipids): 0.038
EPA/AA, Total (Table 5.5) (ratio, Total lipids): 0.030**
EPA/AA, Total (Table 5.6) (ratio, Total lipids): 0.030**
EPA/AA, Triglycerides (Table 5.5) (ratio, Triglycerides): 1.51**
EPA/AA, Triglycerides (Table 5.6) (ratio, Triglycerides): 1.51**
